Where two headings read alike, the source gives them in different places.
Tests used:
[1] = test system: squalene peroxidation (squalenehydroperoxide) in skin lipids; experiment: Efficacy against photooxidative stress in the skin induced by UVA irradiation (squalenehydroperoxide, HPLC); format: in vivo, human
Description: Anti-oxidant activity in vivo is measured via the capacity of a test compound to reduce radical induced lipid-peroxidation. • Persons tested: 10 individuals (4 female, 6 male); age range: 18 to 32 years • Body region tested: inner forearm • Application phase: once a day • Test period 7 days • Evaluation method: Determination of squalene • Determination of squalenehydroperoxide • Time of Evaluation: after UVA radiation • Evaluation: Descriptive statistics: average, median, minimum, maximum, variance, standard error, standard deviation; Multiple range test. Test Method
On the inner forearm of each subject symmetrically opposed areas are defined. The different formulations are applied once a day at a dose of about 2 mg of test solution/cm^2 for one week (application with a syringe for fine dosage: Omnifix®-F 1 ml; manufacturer: Braun Melsungen AG, Germany).
Two areas remain untreated.
The unique application of a solution of tocopherol in ethanol (0.2%) before irradiation serves as control.
Use of other cosmetic products is restricted on the test areas throughout the whole study. The areas (exception: one of the two untreated areas was not irradiated and can be attributed to environmental UVA radiation during the test) of the […] were then irradiated with UVA light (10 joule/cm^2). The lipids present on the test areas are harvested via a solvent extraction (4 ml ethanol for 2 minutes). The samples are first filtered through hydrophobic polypropylene filters to decant squames and other insoluble material, then dried under nitrogen at room temperature and taken up in 1 ml ethanol. Squalene (SQ) and squalenehydroperoxide (SQOOH) are then analysed by High Performance Liquid Chromatography (HPLC).
The fluorometer is used as a photon detector with the excitation source turned off.
This assay measures the hydroperoxy groups themselves and not indirect indices of lipid peroxidation such as conjugated dienes or breakdown products of lipid hydroperoxides. Chemiluminescence also detects ubiquinols. To confirm that any chemiluminescence observed in this assay was due to a hydroperoxide, not a hydroquinone, some samples were reduced with triphenyl phosphine and rerun.
Measuring data are centrally computerised after validity check and quality assurance. Evaluation is done using the software Statgraphics for Windows, Version 5.0—Manugistics, USA. Data are analysed by multiple range test (LSD: Least Significant Differences). The 0.05 level is selected as the point of minimal acceptance statistical significance.

[2] = test system: Primary human dermal fibroblasts (HDF-N2)
Description: Cell cultures: Primary human dermal fibroblasts (HDF-N2) are maintained in Dulbecco's culture media (DMEM; 1 g/l glucose), supplemented with 10% of fetal calf serum (FCS), 100 μg/ml of streptomycin sulphate, 100 μml of penicillin and 2 mM of L-glutamine, all of them from Biowhitaker, USA. Confluent cells are detached by incubation for 3 minutes in 0.055 trypsin/0.53 mM EDTA at 37° C. and plated at the established cell density (normally, 15×10^4 cells/cm^2).
Culture media of negative controls are containing 10 mMol NaCl or 0.05% DMSO or 0.05% ethanol, respectively. Positive control is a culture medium containing 0.02% of Sodium Lauryl Sulfate (SDS).
For comparative purposes, a further culture medium is used containing the compound of the formula

[3] = 1% b.w. solution in ethanol, about 2 mg/cm^2 once a day for 7 days, inner forearm, UVA 10 joule/cm^2, 10 individuals
[4] = 5% stock solution in DMSO or ethanol diluted 1:500 in culture medium with 10% FCS, 48 h HDF cultures, more absorption = more viable cells

| Compound | average inhibition in % of peroxidation (SQOOH relative to untreated area) [1, 3] [%] | Absorbance (OD450) after 24 h treatment ([2]; human, 24 h, 0.01 %) | further results |
| --- | --- | --- | --- |
| CC(c1cc(C(C)(C)C)cc(C(C)(C)C)c1O)c1cc(C(C)(C)C)cc(C(C)(C)C)c1O [AO4] | 28 | 1.0 | – |
| CC(C)(C)c1cc(CCC(=O)Nc2ccc(S(=O)(=O)[O-])cc2)cc(C(C)(C)C)c1O.[Na+] [AO6] | 28 | 1.9 | – |
| CC1(C)CC(O)CC(C)(C)N1O [AO8] | 21 | – | Absorbance (OD450) after 24 h treatment [2, 4]: 1.65 |
| Cc1c(C)c2c(c(C)c1O)CC[C@@](C)(CCC[C@H](C)CCC[C@H](C)CCCC(C)C)O2 [Control, tocopherol, reference compound] | – | – | average inhibition in % of peroxidation (SQOOH relative to untreated area) ([1]; unique application of tocopherol in ethanol (0.2%) before irradiation, UVA 10 joule/cm^2): 22.5% |
| CCCCCCCCCCCCOS(=O)(=O)[O-].[Na+] [SDS, Sodium Lauryl Sulfate, reference compound] | – | – | Absorbance (OD450) after 24 h treatment ([2]; positive control, culture medium containing 0.02% Sodium Lauryl Sulfate, 48 h HDF cultures): 0.25 |
| CC(C)Cc1ccc(Oc2ccccc2)cc1O [comparison, reference compound] | – | 0.25 | – |
| pentaerythritol-tetrakis(3-[3′,5′-di-tert.butyl-4′-hydroxyphenyl]-propionate) [AO7] | – | – | average inhibition in % of peroxidation (SQOOH relative to untreated area) ([1]; 0.1% b.w. solution in ethanol, about 2 mg/cm^2 once a day for 7 days, inner forearm, UVA 10 joule/cm^2, 10 individuals): 21.5%; Absorbance (OD450) after 24 h treatment [2, 4]: 2.0 |
